Five compounds from US11186588B2 (AYUMI PHARMACEUTICAL CORPORATION, priority 2017, dated 2021) can be followed below.

SMILES strings stand for the structures.

Data set [1] deals with type II collagen-induced arthritis. In words: Rat type II collagen-induced arthritis model evaluation test. The data set is classed as in vivo, LEW/CrlCrlj rats. The settings on record: oral 6 mg/mL solution at 5 mL/kg once a day from Day 12, hind limb volume on Day 21, rats. How it is done:
In order to evaluate the inhibitory action for autoimmune and inflammatory diseases of the present compounds, the evaluation of Rat type II collagen-induced arthritis model was carried out. The specific method is described below.
0.05 mol/L acetic acid was added to bovine type II collagen (Collagen Research Center, Cat No. K42) so that it became 2 mg/mL on the day before primary sensitization and secondary sensitization, and the mixture was allowed to stand overnight in a refrigerator to dissolve the material. Immediately before sensitization, it was mixed with an equal amount of Freund's incomplete adjuvant (available from Difco, Cat No. 263910) to prepare an emulsion for sensitization.
An appropriate amount of each compound was weighed, triturated with an agate mortar, and suspended or dissolved in 1% methyl cellulose solution to prepare 6 mg/mL solution.
LEW/CrlCrlj rats (female, purchased from Charles River Laboratories Japan, Inc.) were weighted on the day of primary sensitization (Day 0) and primary grouped to an arthritis non-induced group and an arthritis induced group based on the measured body weight using a random number. The rats (other than the arthritis non-induced group) were thereafter administrated the emulsion for sensitization ([…]) into the skin of the dorsum (divided into 5 portions) under general anesthesia with isoflurane inhalation (available from Mylan Seiyaku Ltd.). Seven days after the primary sensitization (Day 7), the rats (other than the arthritis non-induced group) were manually held in hands and administered the emulsion for sensitization (100 μL) into the skin of the tail. On Day 12, the rats developing arthritis were selected, a random number was used to avoid difference in an average hind limb volume between the groups, and the arthritis induced group was secondary grouped to a control group and each compound-administered group, wherein each group contained 8 samples. The rats were forced orally administered 1% methyl cellulose solution (arthritis non-induced group and control group) or each administration solution comprising the compound (each compound-administered group) at a dose of 5 mL/kg into stomach using a feeding needle once a day from Day 12. The volume of both hind limbs of each rat was measured using a plethysmometer (from Unicom) on Day 0, 4, 7, 12, 14, 18 and 21.
(Calculation of Limb Edema Suppression Rate) The limb edema suppression rate (%) was calculated by the following equation using Microsoft EXCEL 2010. Limb edema suppression rate (%)=100−{(average value of hind limb volume of each compound-administered group on Day 21)−(average value of hind limb volume of arthritis non-induced group on Day 21))/(average value of hind limb volume of control group on Day 21)−(average value of hind limb volume of arthritis non-induced group on Day 21)}×100

Data set [2] in a line: Pharmacokinetics test in rats (oral administration). The data set is classed as in vivo, LEW/CrlCrlj rats. How it is done:
In order to evaluate the transition of plasma concentration of the present compound after oral administration, pharmacokinetics was evaluated in rats. The specific method is described below.
Appropriate amounts of Example 71 and various salts thereof were weighed, triturated with an agate mortar, and suspended or dissolved in 1% methyl cellulose solution to 2 mg/mL (as a converted quantity of Example 71 considering the correction of purify).
LEW/CrlCrlj rats (male, purchased form Charles River Laboratories Japan, Inc.) were weighted, a random number based on the measured body weight was used to avoid difference in average body weight among groups, and the rats were divided into groups, wherein each groups contained 4 rats. The rats were manually held in hands and forced orally administered each administration solution comprising the compound at a dose of 5 mL/kg into stomach using a feeding needle. At 0.5, 1, 3, 6 and 24 hours after the administration of each administration solution comprising the compound, the rats were manually held in hands, and blood was collected from the jugular vein or subclavian vein using a heparin-treated injection syringe. The obtained blood was centrifuged at 1,500 G for 10 minutes, and plasma was collected as an actual sample. In addition, plasma was collected from rats before the administration of the compound in the same manner, which was used as blank plasma. The collected actual samples and blank plasma were stored in a freezer set at −70° C. until the measurement of the compound concentration. To 20 μL of each actual sample were added 20 μL of acetonitrile (available from Kishida Chemical Co., Ltd., Cat No. 140-00401), 100 μL of MilliQ water and 20 μL of the internal standard solution to prepare an analytical sample. In addition, to 20 μL of blank plasma were added 20 μL or 40 μL of acetonitrile (available from Kishida Chemical Co., Ltd., Cat No. 140-00401) and 100 μL of MilliQ water (a blank sample or a zero sample, respectively). A standard sample for a calibration curve was prepared by mixing 20 μL of blank plasma, 20 μL of the standard solution for a calibration curve in each concentration, 100 μL of MilliQ water and 20 μL of the internal standard solution. Whole amount of the prepared each sample was applied to a diatomaceous earth column for liquid-liquid extraction (available from Biotage, Cat No. 820-0200), tert-butyl methyl ether (available from Kanto Chemical Co., Inc., Cat No. 04418-5B) was added and eluted by natural dropping, and the obtained eluate was concentrated to dryness under a nitrogen stream. The residue was dissolved in the re-dissolved solution and 10 μL of each sample was injected into the LC/MS/MS apparatus.
LC/MS/MS analysis was carried out under the following conditions. Analytical column: Hydrosphere C18, 3 μm, 2.0 mm I.D.×50 mm (from YMC, Cat No. HS12S03-0502WT)
Flow rate: 0.3 mL/min. Column temperature: 50° C. Peak area calculation, peak area ratio calculation, preparation of calibration and quantification used in calculating the concentration for the LC/MS/MS analysis were carried out by Analyst ver.1.6.2 (available from AB Sciex). In addition, by using the obtained concentration measurement results, these were analyzed by Non-compartmental model of a pharmacokinetics analysis program WinNonlin ver.6.1 (Pharsight Corporation), and the pharmacokinetics parameter was calculated.

[3] abbreviates: male, LEW/CrlCrlj, rat, plasma, 10 mg/kg, oral 2 mg/mL solution at 5 mL/kg, mean n = 4.

Turning to `Cc1sc2c(c1C)C(c1ccc(Cl)cc1)=NN(Cc1ccccn1)c1nnc(C)n1-2` [Example 5, 4-(4-chlorophenyl)-2,3,9-trimethyl-6-(pyridin-2-ylmethyl)-6H-thieno[2,3-e][1,2,4]triazolo[3,4-c][1,2,4]triazepine], in data set [1], the “Limb edema suppression rate(%)” value worked out at 92.9%.

Take `Cc1sc2c(c1C)C(c1ccc(Cl)cc1)=NN(Cc1cccnc1F)c1nnc(C)n1-2` [Example 25, 4-(4-chlorophenyl)-6-((2-fluoropyridin-3-yl)methyl)-2,3,9-trimethyl-6H-thieno[2,3-e][1,2,4]triazolo[3,4-c][1,2,4]triazepine]: the “Limb edema suppression rate(%)” value in data set [1] is reported as 39.8%.

On to `Cc1sc2c(c1C)C(c1ccccc1)=NN(Cc1ccccn1)c1nnc(C)n1-2` [Example 31, 2,3,9-trimethyl-4-phenyl-6-(pyridin-2-ylmethyl)-6H-thieno[2,3-e][1,2,4]triazolo[3,4-c][1,2,4]triazepine], for which the “Limb edema suppression rate(%)” value in data set [1] is reported as 68.9%.

With `Cc1sc2c(c1C)C(c1ccc(Cl)cc1)=NN(Cc1cccnc1Cl)c1nnc(C)n1-2` [Example 38, 4-(4-chlorophenyl)-6-((2-chloropyridin-3-yl)methyl)-2,3,9-trimethyl-6H-thieno[2,3-e][1,2,4]triazolo[3,4-c][1,2,4]triazepine], in data set [1], the “Limb edema suppression rate(%)” value is recorded as 11.9%.

Usually AUC(0-inf) stands for the area under the concentration-time curve extrapolated to infinity. A lower AUC(0-inf) goes with less exposure. As a reminder, the AUC(0-t) is exposure summed from dosing to a finite time, without extrapolation to infinity. Lower therefore signals low exposure. Broadly, the half-life is the time in which the quantity being followed falls by half. High values mean slow loss, low ones fast loss. As a reminder, the Cmax is the maximum level reached in the sampled fluid or tissue. Usually MRT stands for a mean duration of stay, worked out from the concentration-time curve. For orientation: Tmax means the time from dosing to the highest level. With `CC(=O)Nc1ccc(C2=NN(Cc3cccnc3)c3nnc(C)n3-c3sc(C)c(C)c32)cc1` [Example 71, N-(4-(2,3,9-trimethyl-6-(pyridin-3-ylmethyl)-6H-thieno[2,3-e][1,2,4]triazolo[3,4-c][1,2,4]triazepin-4-yl)phenyl)acetamide], the concentration at 0.5 h in data set [2] (male, LEW/CrlCrlj, rat, 10 mg/kg, plasma, 0.5 h after oral 2 mg/mL solution at 5 mL/kg, mean n = 4, read-out: Concentration (ng/mL), sampling time 0.5 h) was 22.1 ng/mL. Moreover, in data set [2] (male, LEW/CrlCrlj, rat, 10 mg/kg, plasma, 1 h after oral 2 mg/mL solution at 5 mL/kg, mean n = 4, read-out: Concentration (ng/mL), sampling time 1 h), the concentration at 1 h was 14.8 ng/mL. The concentration at 3 h in data set [2] (male, LEW/CrlCrlj, rat, 10 mg/kg, plasma, 3 h after oral 2 mg/mL solution at 5 mL/kg, mean n = 4, read-out: Concentration (ng/mL), sampling time 3 h) turned out to be 4.23 ng/mL. In data set [2] (male, LEW/CrlCrlj, rat, 10 mg/kg, plasma, 6 h after oral 2 mg/mL solution at 5 mL/kg, mean n = 4, read-out: Concentration (ng/mL), sampling time 6 h), the concentration at 6 h turned out to be 1.46 ng/mL. In data set [2] (setting [3]), this compound showed an AUC(0-inf) of 61.8 ng·h/mL, an AUC(0-t) of 42.3 ng·h/mL and a half-life of 1.31 h. Moreover, the highest concentration (Cmax) in data set [2] (male, LEW/CrlCrlj, rat, plasma, 10 mg/kg, oral 2 mg/mL solution at 5 mL/kg, mean n = 4, read-out: Cmax) was found to be 22.4 ng/mL. Further, the MRT in data set [2] (male, LEW/CrlCrlj, rat, plasma, 10 mg/kg, oral 2 mg/mL solution at 5 mL/kg, mean n = 4, read-out: MRT) was 1.82 h. In data set [2] (male, LEW/CrlCrlj, rat, plasma, 10 mg/kg, oral 2 mg/mL solution at 5 mL/kg, mean n = 4, read-out: Tmax), the Tmax amounted to 0.75 h. Besides, the Kel in data set [2] (oral 2 mg/mL solution at 5 mL/kg, mean n = 4) turned out to be 0.55 h⁻¹. Moreover, in data set [1], the “Limb edema suppression rate(%)” value is on record as 93.8%.
